Reference: ChEMBL document CHEMBL1143050, “QSAR study on permeability of hydrophobic compounds with artificial membranes” (Bioorg Med Chem, 2007)
Residues, ends and D or L forms follow the SMILES beside them.

Key:
[1] = Permeability coefficient through artificial membrane in presence of unstirred water layer by PAMPA
[2] = Permeability coefficient through artificial membrane in presence of stirred water layer
[3] = Partition coefficient, log P of the compound; conditions: octanol/water

| Structure (SMILES) | LogP app [1] | Papp [1] [×10⁻⁶ cm/s] | Papp ([2]; PAMPA) [×10⁻⁶ cm/s] | LogP app ([2]; artificial membrane) | LogP app ([2]; PAMPA) | logP [3] |
| --- | --- | --- | --- | --- | --- | --- |
| CCOC(=O)c1ccccc1C(=O)OCC [DIETHYL PHTHALATE] | -4.82 | 15.1 |  |  |  |  |
| C[C@]12C[C@H](O)[C@H]3[C@@H](CCC4=CC(=O)CC[C@@]43C)[C@@H]1CC[C@@H]2C(=O)CO [CORTICOSTERONE] | -4.77 |  | 34.2 | -4.47 |  |  |
| Oc1ccc(O)cc1 [HYDROQUINONE] | -5.14 | 7.31 | 4.6 |  | -5.34 |  |
| Cc1ccc(O)c(C)c1 | -4.61 | 24.3 | 263 | -3.58 |  |  |
| O=[N+]([O-])c1ccccc1O [NITROPHENOLATE] | -4.24 | 57 | 216 | -3.36 |  |  |
| NC(=O)[C@H](Cc1c[nH]c2ccccc12)NC(=O)[C@@H](N)Cc1ccccc1 (H-Phe-Trp-NH2) | -5.22 |  |  |  |  | 1.38 |
| CC(=O)N[C@@H](Cc1ccc(O)cc1)C(=O)N[C@@H](CC(C)C)C(N)=O (Ac-Tyr-Leu-NH2) | -6.54 |  |  |  |  | 0.32 |
| O=[N+]([O-])c1cc(Cl)ccc1Cl | -5.11 | 7.78 | 80.7 | -4.09 |  | 3.03 |
| Oc1ccccc1 [PHENOL] | -4.33 | 47 |  |  | -3.83 |  |
| Oc1ccccc1Cl [2-CHLOROPHENOL] | -4.3 | 50 | 15.2 | -4.82 |  |  |
| Nc1ccccc1[N+](=O)[O-] [2-NITROANILINE] | -4.54 | 28.6 | 229 | -3.64 |  |  |
| CC(=O)N[C@@H](Cc1c[nH]c2ccccc12)C(=O)N[C@H](C(N)=O)C(C)C | -6.18 |  |  |  |  | 0.73 |
| CCC(C)c1ccccc1OC(=O)NC (stereo not given) [FENOBUCARB] | -4.91 | 12.4 | 131 | -3.88 |  |  |
| O=C(O)c1ccccc1Nc1ccccc1 [FENAMIC ACID] | -4.86 | 13.8 | 24.3 | -4.61 |  |  |
| Nc1ccccc1Cl | -4.48 | 33.1 | 246 | -3.63 |  |  |
| COP1(=S)OCc2ccccc2O1 (stereo not given) [SALITHION] | -5.03 | 9.39 | 43.9 | -4.36 |  |  |
| CCc1ccc(C)nc1 | -5.55 | 2.85 | 12.9 | -4.89 |  | 3.3 |
| OCCc1c[nH]c2ccccc12 [TRYPTOPHOL] | -4.72 |  |  |  |  | 1.54 |
| Nc1ccccc1 [ANILINE] | -4.12 | 75.9 | 306 | -3.51 |  |  |
| O=C(O)CCc1c[nH]c2ccccc12 [INDOLYLPROPIONIC ACID] | -5.68 |  |  |  |  |  |
| O=C1CNC(=O)[C@H](Cc2c[nH]c3ccccc23)N1 | -6.02 |  |  |  |  | 0.07 |
| COC(=O)c1ccccc1C(=O)OC [DIMETHYL PHTHALATE] | -4.36 | 43.3 | 158 | -3.8 |  | 1.56 |
| Cc1cc(=O)n(-c2ccccc2)n1C [ANTIPYRINE] | -5.54 |  |  |  |  |  |
| CC(CCc1ccccc1)NCC(O)c1ccc(O)c(C(N)=O)c1 (stereo not given) [LABETALOL] | -5.18 |  | 5.64 | -5.25 |  |  |
| CCN(CC)C(=O)SCc1ccc(Cl)cc1 [THIOBENCARB] | -4.69 | 20.6 | 92.9 | -4.03 |  |  |
| NCCc1c[nH]c2ccccc12 [TRYPTAMINE] | -5.27 |  |  |  |  | 1.35 |
| O=C(O)Cc1c[nH]c2ccccc12 [INDOLE-3-ACETIC ACID] | -6.4 |  |  |  |  |  |

| Structure (SMILES) | LogP app [1] | Papp [1] [×10⁻⁶ cm/s] | Papp ([2]; PAMPA) [×10⁻⁶ cm/s] | LogP app ([2]; artificial membrane) | LogP app ([2]; PAMPA) | logP [3] |
| --- | --- | --- | --- | --- | --- | --- |
| O=C(N[C@H](CO)[C@H](O)c1ccc([N+](=O)[O-])cc1)C(Cl)Cl [CHLORAMPHENICOL] |  |  | 5.75 |  |  |  |
| Cn1c(=O)c2[nH]cnc2n(C)c1=O.O [THEOPHYLLINE] | -5.31 |  |  |  |  |  |
| CC(=O)N[C@@H](Cc1ccc(O)cc1)C(=O)N[C@@H](Cc1ccccc1)C(N)=O (Ac-Tyr-Phe-NH2) |  |  |  |  |  | 0.54 |
| Nc1cccc([N+](=O)[O-])c1 [3-NITROANILINE] | -4.67 | 21.6 | 196 | -3.7 |  |  |
| Cc1ccccc1O [ORTHOCRESOL] | -4.28 | 52.1 | 295 | -3.53 |  |  |
| Cc1cc(C)cc(C(=O)N(NC(=O)c2ccc3c(c2C)CCCO3)C(C)(C)C)c1 [CHROMAFENOZIDE] | -4.78 | 16.7 |  |  |  | 2.7 |
| CC(C)(C)N(NC(=O)c1ccc(Cl)cc1)C(=O)c1ccccc1 [HALOFENOZIDE] | -4.76 | 17.2 |  |  |  |  |
| O=[N+]([O-])NC1=NCCN1Cc1ccc(Cl)nc1 [IMIDACLOPRID] | -5.34 | 4.52 | 5.21 | -5.31 |  | 0.59 |
| CN1CCN(CC(=O)N2c3ccccc3C(=O)Nc3cccnc32)CC1 [PIRENZEPINE] | -6.05 |  | 0.82 | -6.09 |  | 0.1 |
| O=C1N[C@@H](Cc2c[nH]c3ccccc23)C(=O)N[C@H]1Cc1c[nH]c2ccccc12 | -5.04 |  |  |  |  | 2.04 |
| CCn1cc(C(=O)O)c(=O)c2cc(F)c(N3CCNCC3)cc21 [NORFLOXACIN] | -6.71 |  | 0.18 |  | -6.74 | -1.03 |
| CC(=O)N[C@@H](Cc1c[nH]c2ccccc12)C(N)=O [ACETYLTRYPTOPHANAMIDE] | -5.72 |  |  |  |  | 0.42 |
| CC(C)[C@H](NC(=O)[C@H](C)NC(=O)[C@@H](N)Cc1c[nH]c2ccccc12)C(N)=O (H-Trp-Ala-Val-NH2) | -6.62 |  |  |  |  | 0.4 |
| C[C@@H]1C[C@H]2[C@@H]3CCC4=CC(=O)C=C[C@]4(C)[C@@]3(F)[C@@H](O)C[C@]2(C)[C@@]1(O)C(=O)CO [DEXAMETHASONE] | -5.37 |  | 11.3 | -4.95 |  | 2.01 |
| Oc1ccc(Cl)cc1Cl [2,4-DICHLOROPHENOL] | -4.93 | 11.9 | 127 | -3.9 |  |  |
| CC(C)(C)NCC(O)COc1cccc2c1C[C@H](O)[C@H](O)C2 (stereo not given in full) [NADOLOL] | -6.15 |  | 32.7 | -4.49 |  | 0.71 |
| N#Cc1ccc(O)cc1 [4-CYANOPHENOL] | -4.77 | 17 | 22.3 | -4.65 |  |  |
| CC(=O)Nc1ccc(OCC(O)CNC(C)C)cc1 (stereo not given) [PRACTOLOL] | -5.98 |  | 0.37 | -6.43 |  |  |
| O=[N+]([O-])c1cccc(O)c1 [3-NITRO-PHENOL] | -4.77 | 17.1 | 69.4 | -4.16 |  |  |
| CNC(=C[N+](=O)[O-])NCCSCc1ccc(CN(C)C)o1 [RANITIDINE] | -6.05 |  | 3 |  | -5.52 |  |
| CC(=O)N[C@H](Cc1c[nH]c2ccccc12)C(=O)N[C@H](C(N)=O)C(C)C | -6.14 |  |  |  |  | 0.65 |
| O=C(O)c1c[nH]c2ccccc12 | -6.1 |  |  |  |  |  |
| Nc1cccc(Cl)c1 [3-CHLOROANILINE] | -4.44 | 36.7 | 261 | -3.58 |  |  |
| NC(=O)[C@@H](N)Cc1c[nH]c2ccccc12 | -5.56 |  |  |  |  | 0.3 |
| NCC(=O)N[C@@H](Cc1c[nH]c2ccccc12)C(N)=O (H-Gly-Trp-NH2) | -6.38 |  |  |  |  | -0.48 |
| CC(=O)Nc1ccc(O)cc1 [ACETAMINOPHEN] | -6.04 |  | 2.22 | -5.65 |  |  |
